ChEMBL document CHEMBL4507325 (2021)

Columns and labels:
[1] = biological target: Cannabinoid receptor 1 (Homo sapiens) (UniProt P21554); conditions: Compound concentration 10.0 uM
[2] = biological target: D(3) dopamine receptor (Homo sapiens) (UniProt P35462); conditions: Compound concentration 10.0 uM
[3] = biological target: Alpha-2B adrenergic receptor (Homo sapiens) (UniProt P18089); conditions: Compound concentration 10.0 uM
[4] = biological target: Histamine H4 receptor (Homo sapiens) (UniProt Q9H3N8); conditions: Compound concentration 10.0 uM
[5] = biological target: Alpha-1A adrenergic receptor (Homo sapiens) (UniProt P35348); conditions: Rattus norvegicus; Compound concentration 10.0 uM
Chain of Alpha-1A adrenergic receptor (Homo sapiens) (P35348 whole entry): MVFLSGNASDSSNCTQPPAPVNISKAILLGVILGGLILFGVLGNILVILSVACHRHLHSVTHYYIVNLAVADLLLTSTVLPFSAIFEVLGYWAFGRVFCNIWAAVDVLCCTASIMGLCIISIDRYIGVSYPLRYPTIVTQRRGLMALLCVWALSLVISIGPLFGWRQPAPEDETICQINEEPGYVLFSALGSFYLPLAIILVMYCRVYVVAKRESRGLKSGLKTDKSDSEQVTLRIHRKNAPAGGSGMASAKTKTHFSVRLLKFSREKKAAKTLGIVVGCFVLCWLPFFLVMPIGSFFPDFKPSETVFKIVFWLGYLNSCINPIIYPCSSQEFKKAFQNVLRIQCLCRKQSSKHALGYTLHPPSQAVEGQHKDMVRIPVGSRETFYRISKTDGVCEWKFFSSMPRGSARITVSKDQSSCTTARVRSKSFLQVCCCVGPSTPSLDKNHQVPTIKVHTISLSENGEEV

[6] = biological target: Type-2 angiotensin II receptor (Homo sapiens) (UniProt P50052); conditions: Compound concentration 10.0 uM
[7] = biological target: Adenosine receptor A3 (Homo sapiens) (UniProt P0DMS8); conditions: Compound concentration 10.0 uM
[8] = biological target: Aspartate aminotransferase, mitochondrial (Homo sapiens, UniProt P00505); assay: Aspartate transaminase assay (GOT2)
[9] = biological target: Endothelin-1 receptor (Homo sapiens) (UniProt P25101); conditions: Compound concentration 10.0 uM
[10] = biological target: Aspartate aminotransferase, cytoplasmic (Homo sapiens, UniProt P17174); assay: Aspartate transaminase assay (GOT1)
Chain of Aspartate aminotransferase, cytoplasmic (P17174 whole entry): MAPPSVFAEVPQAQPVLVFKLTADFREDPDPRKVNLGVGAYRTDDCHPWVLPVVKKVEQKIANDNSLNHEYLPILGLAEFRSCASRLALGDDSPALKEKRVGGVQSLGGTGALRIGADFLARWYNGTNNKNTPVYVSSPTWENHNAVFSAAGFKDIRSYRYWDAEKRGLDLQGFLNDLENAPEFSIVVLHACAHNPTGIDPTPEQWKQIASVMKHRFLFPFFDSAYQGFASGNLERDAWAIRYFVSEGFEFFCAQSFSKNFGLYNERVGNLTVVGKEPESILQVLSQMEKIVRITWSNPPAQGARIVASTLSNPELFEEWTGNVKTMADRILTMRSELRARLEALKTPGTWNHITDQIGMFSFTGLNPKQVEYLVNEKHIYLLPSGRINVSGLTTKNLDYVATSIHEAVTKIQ

[11] = biological target: Beta-1 adrenergic receptor (Homo sapiens) (UniProt P08588); conditions: Compound concentration 10.0 uM
[12] = biological target: 5-hydroxytryptamine receptor 2A (Homo sapiens) (UniProt P28223); conditions: Compound concentration 10.0 uM
Chain of 5-hydroxytryptamine receptor 2A (Homo sapiens) (P28223 whole entry): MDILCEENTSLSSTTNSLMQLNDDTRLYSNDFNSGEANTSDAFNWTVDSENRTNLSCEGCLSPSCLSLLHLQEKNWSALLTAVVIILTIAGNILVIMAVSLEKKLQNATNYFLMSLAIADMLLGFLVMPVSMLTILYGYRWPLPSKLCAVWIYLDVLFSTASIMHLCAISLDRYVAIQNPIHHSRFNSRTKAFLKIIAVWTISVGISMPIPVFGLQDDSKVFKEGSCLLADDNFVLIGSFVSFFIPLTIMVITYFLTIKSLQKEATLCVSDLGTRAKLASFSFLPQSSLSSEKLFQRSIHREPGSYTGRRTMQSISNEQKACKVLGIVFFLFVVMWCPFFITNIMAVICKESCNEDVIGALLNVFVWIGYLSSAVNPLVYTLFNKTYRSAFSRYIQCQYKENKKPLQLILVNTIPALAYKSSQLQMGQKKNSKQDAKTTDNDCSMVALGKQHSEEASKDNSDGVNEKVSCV

[13] = biological target: Delta-type opioid receptor (Homo sapiens) (UniProt P41143); conditions: Compound concentration 10.0 uM
Chain of Delta-type opioid receptor (Homo sapiens) (P41143 whole entry): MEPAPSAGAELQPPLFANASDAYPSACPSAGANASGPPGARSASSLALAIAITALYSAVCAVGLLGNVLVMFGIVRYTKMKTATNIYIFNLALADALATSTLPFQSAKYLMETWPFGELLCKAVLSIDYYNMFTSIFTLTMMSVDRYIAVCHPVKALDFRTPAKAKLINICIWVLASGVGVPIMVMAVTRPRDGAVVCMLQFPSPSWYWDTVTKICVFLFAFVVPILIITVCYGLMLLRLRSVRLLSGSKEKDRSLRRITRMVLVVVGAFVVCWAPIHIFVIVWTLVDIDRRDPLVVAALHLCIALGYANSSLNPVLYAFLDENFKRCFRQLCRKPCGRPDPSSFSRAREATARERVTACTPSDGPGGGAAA

[14] = biological target: Sigma intracellular receptor 2 (Homo sapiens) (UniProt Q5BJF2); conditions: Compound concentration 10.0 uM
Chain of Sigma intracellular receptor 2 (Homo sapiens) (Q5BJF2 whole entry): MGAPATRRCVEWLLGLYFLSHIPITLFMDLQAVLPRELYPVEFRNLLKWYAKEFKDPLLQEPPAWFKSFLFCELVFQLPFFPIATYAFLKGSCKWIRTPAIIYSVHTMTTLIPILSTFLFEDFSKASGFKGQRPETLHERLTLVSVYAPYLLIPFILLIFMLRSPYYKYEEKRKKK

[15] = species on record: Oryctolagus cuniculus; conditions: Compound concentration 10.0 uM
[16] = biological target: Muscarinic acetylcholine receptor M2 (Homo sapiens) (UniProt P08172); conditions: Compound concentration 10.0 uM
[17] = biological target: 5-hydroxytryptamine receptor 2C (Homo sapiens) (UniProt P28335); conditions: Compound concentration 10.0 uM
Chain of 5-hydroxytryptamine receptor 2C (Homo sapiens) (P28335 whole entry): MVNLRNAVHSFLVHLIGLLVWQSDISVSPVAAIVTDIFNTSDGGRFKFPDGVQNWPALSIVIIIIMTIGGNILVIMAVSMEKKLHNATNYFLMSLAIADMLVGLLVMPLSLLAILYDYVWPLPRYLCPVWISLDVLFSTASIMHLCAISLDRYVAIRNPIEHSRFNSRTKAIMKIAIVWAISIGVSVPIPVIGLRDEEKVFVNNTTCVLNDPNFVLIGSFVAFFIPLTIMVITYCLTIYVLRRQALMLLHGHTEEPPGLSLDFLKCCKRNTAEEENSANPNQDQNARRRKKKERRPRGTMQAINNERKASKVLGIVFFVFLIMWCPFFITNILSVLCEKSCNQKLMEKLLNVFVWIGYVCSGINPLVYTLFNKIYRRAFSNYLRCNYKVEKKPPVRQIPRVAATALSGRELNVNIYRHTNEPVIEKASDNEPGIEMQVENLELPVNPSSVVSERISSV

[18] = species on record: Rattus norvegicus; conditions: Compound concentration 10.0 uM
[19] = biological target: Glutamate NMDA receptor (Rattus norvegicus) (UniProt P35439+Q00959+Q00960+Q00961+Q62645+Q8VHN2+Q9R1M7); conditions: Compound concentration 10.0 uM
[20] = biological target: Kappa-type opioid receptor (Homo sapiens) (UniProt P41145); conditions: Compound concentration 10.0 uM
Chain of Kappa-type opioid receptor (Homo sapiens) (P41145 whole entry): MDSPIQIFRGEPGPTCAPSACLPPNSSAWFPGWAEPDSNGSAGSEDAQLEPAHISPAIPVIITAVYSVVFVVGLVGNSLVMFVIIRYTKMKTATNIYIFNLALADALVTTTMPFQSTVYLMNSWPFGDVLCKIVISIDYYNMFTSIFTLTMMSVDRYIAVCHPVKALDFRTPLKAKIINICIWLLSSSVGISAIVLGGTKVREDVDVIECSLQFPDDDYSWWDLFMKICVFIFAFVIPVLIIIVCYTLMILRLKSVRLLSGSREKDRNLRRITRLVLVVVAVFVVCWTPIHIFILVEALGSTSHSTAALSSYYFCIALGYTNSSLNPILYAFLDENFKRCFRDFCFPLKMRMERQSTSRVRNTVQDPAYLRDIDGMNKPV

[21] = biological target: 5-hydroxytryptamine receptor 7 (Homo sapiens) (UniProt P34969); conditions: Compound concentration 10.0 uM
[22] = biological target: 5-hydroxytryptamine receptor 1A (Homo sapiens) (UniProt P08908); conditions: Compound concentration 10.0 uM
[23] = biological target: Adenosine receptor A1 (Homo sapiens) (UniProt P30542); conditions: Compound concentration 10.0 uM
[24] = biological target: D(1B) dopamine receptor (Homo sapiens) (UniProt P21918); conditions: Compound concentration 10.0 uM
Chain of D(1B) dopamine receptor (Homo sapiens) (P21918 whole entry): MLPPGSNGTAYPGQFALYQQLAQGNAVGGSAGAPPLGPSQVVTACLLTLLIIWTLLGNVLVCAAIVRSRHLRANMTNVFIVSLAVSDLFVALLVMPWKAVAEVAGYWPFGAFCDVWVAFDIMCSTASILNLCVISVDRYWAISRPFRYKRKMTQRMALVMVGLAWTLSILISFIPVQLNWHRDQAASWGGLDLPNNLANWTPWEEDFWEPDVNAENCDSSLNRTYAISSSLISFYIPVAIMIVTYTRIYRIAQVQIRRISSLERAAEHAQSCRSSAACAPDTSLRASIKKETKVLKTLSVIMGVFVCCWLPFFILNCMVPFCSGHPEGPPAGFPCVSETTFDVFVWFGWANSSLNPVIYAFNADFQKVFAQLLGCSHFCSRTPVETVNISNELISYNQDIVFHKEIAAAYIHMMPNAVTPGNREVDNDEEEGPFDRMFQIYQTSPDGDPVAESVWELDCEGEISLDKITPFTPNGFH

[25] = biological target: 5-hydroxytryptamine receptor 2A (Homo sapiens) (UniProt P28223); conditions: Compound concentration 10.0 uM; remark: listed apart in the source
[26] = biological target: 5-hydroxytryptamine receptor 3A (Homo sapiens) (UniProt P46098); conditions: Compound concentration 10.0 uM
[27] = biological target: D(3) dopamine receptor (Homo sapiens) (UniProt P35462); conditions: Compound concentration 10.0 uM; remark: listed apart in the source
[28] = biological target: Histamine H3 receptor (Homo sapiens) (UniProt Q9Y5N1); conditions: Compound concentration 10.0 uM
[29] = biological target: D(1A) dopamine receptor (Homo sapiens) (UniProt P21728); conditions: Compound concentration 10.0 uM
Chain of D(1A) dopamine receptor (Homo sapiens) (P21728 whole entry): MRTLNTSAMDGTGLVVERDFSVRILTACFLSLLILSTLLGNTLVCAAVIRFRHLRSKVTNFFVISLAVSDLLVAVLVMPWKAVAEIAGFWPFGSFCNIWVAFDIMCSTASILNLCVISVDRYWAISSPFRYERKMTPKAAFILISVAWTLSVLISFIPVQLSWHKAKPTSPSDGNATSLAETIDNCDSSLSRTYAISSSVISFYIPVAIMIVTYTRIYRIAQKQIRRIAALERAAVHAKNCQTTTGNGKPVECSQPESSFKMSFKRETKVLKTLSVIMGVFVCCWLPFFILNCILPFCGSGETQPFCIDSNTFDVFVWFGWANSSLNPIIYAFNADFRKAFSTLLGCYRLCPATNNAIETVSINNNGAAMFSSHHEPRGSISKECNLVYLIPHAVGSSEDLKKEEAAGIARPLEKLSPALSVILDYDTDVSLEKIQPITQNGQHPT

[30] = biological target: 5-hydroxytryptamine receptor 2C (Homo sapiens) (UniProt P28335); conditions: Compound concentration 10.0 uM; remark: listed apart in the source
[31] = biological target: Histamine H2 receptor (Homo sapiens) (UniProt P25021); conditions: Compound concentration 10.0 uM
Chain of Histamine H2 receptor (Homo sapiens) (P25021 whole entry): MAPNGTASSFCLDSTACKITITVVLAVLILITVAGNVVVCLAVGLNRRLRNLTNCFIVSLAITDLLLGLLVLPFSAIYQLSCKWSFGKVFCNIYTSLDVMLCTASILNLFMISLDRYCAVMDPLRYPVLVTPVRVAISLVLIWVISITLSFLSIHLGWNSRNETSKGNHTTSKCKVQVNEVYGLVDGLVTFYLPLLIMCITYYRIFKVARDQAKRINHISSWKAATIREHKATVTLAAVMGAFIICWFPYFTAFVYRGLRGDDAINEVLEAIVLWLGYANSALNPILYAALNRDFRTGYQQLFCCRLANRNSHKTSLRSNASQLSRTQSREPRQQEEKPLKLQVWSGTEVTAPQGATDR

[32] = biological target: Muscarinic acetylcholine receptor M4 (Homo sapiens) (UniProt P08173); conditions: Compound concentration 10.0 uM
[33] = biological target: Alpha-1A adrenergic receptor (Homo sapiens) (UniProt P35348); conditions: Compound concentration 10.0 uM
[34] = biological target: Glucocorticoid receptor (Homo sapiens) (UniProt P04150); conditions: Compound concentration 10.0 uM
[35] = biological target: Purinergic P2Y (Rattus norvegicus) (UniProt O35811+Q9EPX4+P49651+Q63371+P41232+O35881+Q6GUG4); conditions: Compound concentration 10.0 uM
[36] = biological target: 5-hydroxytryptamine receptor 6 (Homo sapiens) (UniProt P50406); conditions: Compound concentration 10.0 uM
Chain of 5-hydroxytryptamine receptor 6 (Homo sapiens) (P50406 whole entry): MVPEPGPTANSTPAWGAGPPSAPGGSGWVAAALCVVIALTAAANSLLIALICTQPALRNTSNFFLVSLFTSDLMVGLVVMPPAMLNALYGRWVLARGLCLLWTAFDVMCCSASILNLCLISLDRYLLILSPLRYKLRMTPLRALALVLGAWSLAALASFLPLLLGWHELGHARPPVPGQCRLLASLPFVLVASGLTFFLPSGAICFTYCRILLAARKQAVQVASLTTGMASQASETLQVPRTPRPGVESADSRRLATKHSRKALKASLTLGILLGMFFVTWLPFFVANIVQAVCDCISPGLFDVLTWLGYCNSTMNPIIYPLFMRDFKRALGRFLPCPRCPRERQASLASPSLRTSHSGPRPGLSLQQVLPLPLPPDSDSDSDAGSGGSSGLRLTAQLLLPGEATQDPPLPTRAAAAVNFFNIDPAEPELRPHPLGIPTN

[37] = biological target: Type-1 angiotensin II receptor (Homo sapiens) (UniProt P30556); conditions: Compound concentration 10.0 uM
[38] = biological target: D(2) dopamine receptor (Homo sapiens) (UniProt P14416); conditions: Compound concentration 10.0 uM
[39] = biological target: Endothelin receptor type B (Homo sapiens) (UniProt P24530); conditions: Compound concentration 10.0 uM
[40] = biological target: Mu-type opioid receptor (Homo sapiens) (UniProt P35372); conditions: Compound concentration 10.0 uM
[41] = biological target: Glutamate receptor ionotropic, kainate (Rattus norvegicus) (UniProt P22756+Q01812+P42260+P42264+Q63273); conditions: Compound concentration 10.0 uM
[42] = biological target: Beta-3 adrenergic receptor (Homo sapiens) (UniProt P13945); conditions: Compound concentration 10.0 uM
[43] = biological target: D(1A) dopamine receptor (Homo sapiens) (UniProt P21728); conditions: Compound concentration 10.0 uM; remark: listed apart in the source
[44] = biological target: Muscarinic acetylcholine receptor M1 (Homo sapiens) (UniProt P11229); conditions: Compound concentration 10.0 uM
[45] = biological target: Alpha-1B adrenergic receptor (Homo sapiens) (UniProt P35368); conditions: Compound concentration 10.0 uM
[46] = biological target: Delta-type opioid receptor (Homo sapiens) (UniProt P41143); conditions: Compound concentration 10.0 uM; remark: listed apart in the source
[47] = biological target: Kappa-type opioid receptor (Homo sapiens) (UniProt P41145); conditions: Compound concentration 10.0 uM; remark: listed apart in the source

Chain of D(3) dopamine receptor (Homo sapiens) (P35462 whole entry): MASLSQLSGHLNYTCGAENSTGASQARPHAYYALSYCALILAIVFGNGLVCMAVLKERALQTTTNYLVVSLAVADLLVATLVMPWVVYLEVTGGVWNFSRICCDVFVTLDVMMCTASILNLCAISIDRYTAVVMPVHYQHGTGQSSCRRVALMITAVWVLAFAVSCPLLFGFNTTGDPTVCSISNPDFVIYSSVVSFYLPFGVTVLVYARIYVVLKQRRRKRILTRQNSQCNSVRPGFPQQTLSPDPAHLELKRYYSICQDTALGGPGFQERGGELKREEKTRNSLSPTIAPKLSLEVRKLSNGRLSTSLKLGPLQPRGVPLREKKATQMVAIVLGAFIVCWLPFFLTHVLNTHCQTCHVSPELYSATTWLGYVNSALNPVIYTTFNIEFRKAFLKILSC

inhibition [1]: 16%
inhibition [2]: 14%
inhibition [3]: -2%
inhibition [4]: -6.41%
inhibition [5]: 5%
inhibition [6]: 6%
inhibition [7]: -2%
IC50 [8]: > 50 µM (not active)
inhibition [9]: -2%
IC50 [10]: > 50 µM (not active)
inhibition [11]: -5.52%
inhibition [12]: 1%
inhibition [13]: -3%
inhibition [14]: -7.5%
inhibition [15]: 11%
inhibition [16]: 4%
inhibition [17]: 3%
inhibition [18]: 63.9%
inhibition [19]: -2%
inhibition [20]: 37.5%
inhibition [21]: 13.1%
inhibition [22]: 9%
inhibition [23]: 27%
inhibition [24]: 18.7%
inhibition [25]: -2.88%
inhibition [26]: 20.3%
inhibition [27]: 8.85%
inhibition [28]: 3%
inhibition [29]: -0.83%
inhibition [30]: 0.89%
inhibition [31]: -2%
inhibition [32]: -5%
inhibition [33]: -2.81%
inhibition [34]: 13%
inhibition [35]: -4%
inhibition [36]: 13%
inhibition [37]: 7%
inhibition [38]: -5%
inhibition [39]: -9%
inhibition [40]: 20.9%
inhibition [41]: -4%
inhibition [42]: 15%
inhibition [43]: 7%
inhibition [44]: 17.8%
inhibition [45]: 19.3%
inhibition [46]: 14.5%
inhibition [47]: -7%
SMILES: Cc1ccccc1Oc1cc(-n2c(=O)cc(C(F)(F)F)[nH]c2=O)c2ccccc2c1Cl [BAY-069]
